Assay results reported in paper PMC3419191, “Identification of Novel Piperazinylquinoxaline Derivatives as Potent Phosphoinositide 3-Kinase (PI3K) Inhibitors” (PLoS ONE, 2012).

Tests used:
HCT116 = experiment: MTT assay, antiproliferative activity against HCT116 cells; format: cell-based; settings: Homo sapiens, HCT-116, 72 h, mean of at least two determinations
Source text: (§1) All synthesized target compounds were firstly tested for their antiproliferative activity against five human cancer cell lines, PC3, A549, HCT116, HL60, and KB, using MTT assay.
(§2) Human prostate cancer PC3 cells, lung adenocarcinoma epithelial A549 cells, colon cancer HCT116 cells, promyelocytic leukemia HL60 cells and nasopharyngeal carcinoma KB cells were obtained from the cell bank of the Institute of Biochemistry and Cell Biology, Chinese Academy of Sciences (Shanghai, China). The inhibitory activity of target compounds against tested cancer cell lines was measured using the MTT assay. PC3, A549, HCT116, HL60, and KB cancer cell lines were cultured in RPMI-1640 medium (Invitrogen, Carlsbad, CA, USA) with heat-inactivated 10% fetal bovine serum, penicillin (100 units/mL) and streptomycin (100 µg/mL) and incubated in an atmosphere with 20% oxygen and 5% carbon dioxide at 37°C. All tested compounds were dissolved in DMSO at concentrations of 10.0 mg/mL and diluted to appropriate concentrations. Cells were plated in 96-well plates for 24 h and subsequently treated with different concentrations of all tested compounds for 72 h. Viable cells were determined using 3-(4,5-dimethylthiazol-2-yl)-2,5-diphenyltetrazolium bromide assay kit (MTT, Sigma) according to operation instructions provided by the manufacturer. The concentration of drug causing 50% inhibition in absorbance compared with control cells (IC50) was calculated using the software of dose-effect analysis with microcomputers.

PC3 = experiment: MTT assay, antiproliferative activity against PC3 cells; format: cell-based; settings: Homo sapiens, PC-3, 72 h, mean of at least two determinations
Source text: as §1, §2

recombinant human PI3Kα = target: T1, recombinant human PI3Kα (Homo sapiens, UniProt P42336); experiment: Competitive fluorescence polarization (FP) assay, inhibition of PI3Kα; format: biochemical; settings: for Binding efficiency index (BEI): BEI = pIC50 (M)/MW (kDa), PI3Kα
T1 construct: purchased Echelon Biosciences (Salt Lake City, UT, USA) E-2000
T1 sequence (P42336 whole entry): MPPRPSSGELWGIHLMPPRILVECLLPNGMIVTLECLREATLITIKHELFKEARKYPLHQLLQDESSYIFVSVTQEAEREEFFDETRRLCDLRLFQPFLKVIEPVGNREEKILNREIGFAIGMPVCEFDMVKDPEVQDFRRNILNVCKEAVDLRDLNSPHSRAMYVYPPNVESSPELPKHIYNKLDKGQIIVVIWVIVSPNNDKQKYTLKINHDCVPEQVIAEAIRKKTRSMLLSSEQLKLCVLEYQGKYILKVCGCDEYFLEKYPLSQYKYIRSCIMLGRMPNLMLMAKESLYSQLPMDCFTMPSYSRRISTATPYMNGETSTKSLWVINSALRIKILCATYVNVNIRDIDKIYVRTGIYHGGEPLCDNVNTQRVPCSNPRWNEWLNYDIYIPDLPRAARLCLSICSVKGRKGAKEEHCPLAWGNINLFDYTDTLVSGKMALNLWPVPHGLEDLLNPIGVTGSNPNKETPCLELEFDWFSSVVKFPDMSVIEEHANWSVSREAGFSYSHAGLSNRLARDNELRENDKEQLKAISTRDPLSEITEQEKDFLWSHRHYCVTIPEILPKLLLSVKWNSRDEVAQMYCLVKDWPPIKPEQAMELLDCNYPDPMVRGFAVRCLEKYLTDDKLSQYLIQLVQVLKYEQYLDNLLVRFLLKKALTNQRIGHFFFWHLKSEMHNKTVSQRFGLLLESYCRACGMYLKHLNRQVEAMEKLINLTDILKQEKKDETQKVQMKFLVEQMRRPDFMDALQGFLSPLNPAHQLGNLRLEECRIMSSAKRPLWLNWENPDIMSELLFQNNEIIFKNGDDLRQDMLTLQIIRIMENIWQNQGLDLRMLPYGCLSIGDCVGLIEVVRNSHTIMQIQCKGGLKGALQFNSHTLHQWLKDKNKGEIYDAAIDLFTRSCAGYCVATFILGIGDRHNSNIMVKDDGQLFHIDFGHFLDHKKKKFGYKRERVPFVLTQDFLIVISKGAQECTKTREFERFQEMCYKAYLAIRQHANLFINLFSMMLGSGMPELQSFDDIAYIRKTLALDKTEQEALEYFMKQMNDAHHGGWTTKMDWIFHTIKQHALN
T1 sequence (P27986 whole entry partner): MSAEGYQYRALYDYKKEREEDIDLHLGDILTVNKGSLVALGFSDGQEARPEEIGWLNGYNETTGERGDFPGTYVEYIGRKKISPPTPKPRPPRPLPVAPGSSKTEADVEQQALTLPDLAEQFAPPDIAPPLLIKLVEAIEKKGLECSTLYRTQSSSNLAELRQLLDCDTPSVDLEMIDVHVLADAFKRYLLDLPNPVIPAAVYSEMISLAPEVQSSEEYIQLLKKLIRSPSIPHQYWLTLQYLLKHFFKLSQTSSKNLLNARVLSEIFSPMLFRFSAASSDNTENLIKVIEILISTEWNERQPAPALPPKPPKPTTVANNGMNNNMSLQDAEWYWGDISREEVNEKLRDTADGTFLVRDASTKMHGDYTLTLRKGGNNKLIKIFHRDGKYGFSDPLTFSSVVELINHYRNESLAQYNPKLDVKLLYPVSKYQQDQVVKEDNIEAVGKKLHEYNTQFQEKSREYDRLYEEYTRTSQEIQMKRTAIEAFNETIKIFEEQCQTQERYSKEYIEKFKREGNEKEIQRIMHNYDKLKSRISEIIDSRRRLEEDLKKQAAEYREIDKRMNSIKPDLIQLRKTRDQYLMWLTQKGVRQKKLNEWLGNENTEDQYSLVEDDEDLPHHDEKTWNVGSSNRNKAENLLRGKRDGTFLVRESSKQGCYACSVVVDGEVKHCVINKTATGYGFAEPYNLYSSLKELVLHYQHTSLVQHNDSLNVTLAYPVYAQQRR
Description: Selected compounds were then tested for their enzymatic inhibitory activity against PI3Kα using a competitive fluorescence polarization (FP) assay to determine the molecular target of synthesized compounds [21].
The PI3Kα inhibitory test was determined using a competitive fluorescence polarization kinase activity assay. PI3K fluorescence polarization assay kit (catalog No. K-1100) and recombinant human PI3Kα (catalog No. E-2000) were purchased from Echelon Biosciences (Salt Lake City, UT, USA). PI3K reactions were performed in 5 mM HEPES, Ph 7, 2.5 mM MgCl2, 10 mM DTT and 50 µM ATP, using diC8-phosphatidylinositol-4, 5-bisphosphate (PIP2) as the substrate, and the final reaction volumes were 10 µL. For evaluation of the PI3Kα inhibitory activity of target compounds, 50 ng enzyme and 10 µM substate were used per 10 µL reaction volume with the concentrations of inhibitors ranging from 3.2 nM to 10 µM. After incubating for 3 h at room temperature, reactions were quenched by adding chelators. A mixture of phosphoinositide binding protein was added and mixed, followed by the addition of a fluorophore-labeled phosphoinositide tracer. Samples were then mixed in 384-well black Corning nonbinding plates (Corning, NY, USA) and incubated in a dark environment for 1 h to equilibrate. Finally, polarization values were measure using red fluorophores with appropriate filters to determine the extent of enzyme activity in the reaction.

A549 = experiment: MTT assay, antiproliferative activity against A549 cells; format: cell-based; settings: Homo sapiens, 72 h, mean of at least two determinations
Source text: as §1, §2

KB = experiment: MTT assay, antiproliferative activity against KB cells; format: cell-based; settings: Homo sapiens, 72 h, mean of at least two determinations
Source text: as §1, §2

HL60 = experiment: MTT assay, antiproliferative activity against HL60 cells; format: cell-based; settings: Homo sapiens, HL-60, 72 h, mean of at least two determinations
Source text: as §1, §2

[1] = FP assay, 50 µM ATP, mean of at least two determinations

In the case of `CC1CN(c2nc3ccccc3nc2S(=O)(=O)c2ccc(Br)cc2)CCN1` (stereo not shown) [Compound 27, 2-(3-Methylpiperazin-1-yl)-3-(4-bromophenylsulfonyl)quinoxaline], the IC50 (HCT116) is reported as 320 nM, the IC50 (PC3) is reported as 600 nM and the “Binding efficiency index (BEI)” value (recombinant human PI3Kα) is reported as 16.1. The IC50 (recombinant human PI3Kα; [1]) was 61 nM, the IC50 (recombinant human PI3Kα; as used for BEI, Table 5) was 61 nM and the melting point was 158 to 160 °C. It also gave an IC50 (A549) of 570 nM, an IC50 (KB) of 9.46 µM and an IC50 (HL60) of 120 nM.

With `O=S(=O)(c1ccccc1)c1nc2ccccc2nc1N1CCNCC1` [Compound 19, 2-(Piperazin-1-yl)-3-(phenylsulfonyl)quinoxaline] the IC50 (HCT116) was 990 nM, the IC50 (PC3) was 900 nM and the “Binding efficiency index (BEI)” value (recombinant human PI3Kα) was 19.0. For the same compound, the IC50 (recombinant human PI3Kα; [1]) was 190 nM, the IC50 (A549) was 12800 nM and the IC50 (KB) was 8.27 µM. For the same compound, the IC50 (HL60) was 110 nM.

Compound `Cc1ccc(S(=O)(=O)c2nc3ccccc3nc2N2CCN(S(C)(=O)=O)CC2)cc1` [Compound 40, 2-(4-(Methylsulfonyl)piperazin-1-yl)-3-(4-methylphenylsulfonyl)quinoxaline] has an IC50 (HCT116) of 1070 nM, an IC50 (PC3) of 5350 nM and an IC50 (recombinant human PI3Kα; [1]) of 460 nM. For the same compound, the IC50 (A549) was 1930 nM.

With `O=S(=O)(c1ccc(Br)cc1)c1nc2ccccc2nc1N1CCC(O)CC1` [WR23, reference compound] the “Binding efficiency index (BEI)” value (recombinant human PI3Kα) was 17.0.

With `CS(=O)(=O)N1CCN(c2nc3ccccc3nc2S(=O)(=O)c2ccc(Br)cc2)CC1` [Compound 42, 2-(4-(Methylsulfonyl)piperazin-1-yl)-3-(4-bromophenylsulfonyl)quinoxaline] the IC50 (HCT116) was 410 nM, the IC50 (PC3) was 1950 nM and the “Binding efficiency index (BEI)” value (recombinant human PI3Kα) was 12.4. It also gave an IC50 (recombinant human PI3Kα; [1]) of 440 nM, a melting point of 194 to 196 °C and an IC50 (A549) of 1320 nM.

For `CS(=O)(=O)N1CCN(c2nc3ccccc3nc2S(=O)(=O)c2ccc(F)cc2)CC1` [Compound 43, 2-(4-(Methylsulfonyl)piperazin-1-yl)-3-(4-fluorophenylsulfonyl)quinoxaline], the IC50 (HCT116) was 330 nM, the IC50 (PC3) was 3300 nM and the “Binding efficiency index (BEI)” value (recombinant human PI3Kα) was 13.3. The IC50 (recombinant human PI3Kα; [1]) was 1010 nM, the melting point was 206 to 207 °C and the IC50 (A549) was 1260 nM.

With `CC1CN(c2nc3ccccc3nc2S(=O)(=O)c2ccccc2)CCN1` (stereo not shown) [Compound 24, 2-(3-Methylpiperazin-1-yl)-3-(phenylsulfonyl)quinoxaline] the IC50 (HCT116) was 680 nM, the IC50 (PC3) was 1440 nM and the “Binding efficiency index (BEI)” value (recombinant human PI3Kα) was 19.7. The IC50 (recombinant human PI3Kα; [1]) was 59 nM, the IC50 (A549) was 1360 nM and the IC50 (KB) was 8.73 µM. It also gave an IC50 (HL60) of 150 nM.

For `O=S(=O)(c1ccccc1)c1nc2ccccc2nc1N1CCOCC1` [WR1, reference compound], the IC50 (HCT116) was 5350 nM, the IC50 (PC3) was 18900 nM and the “Binding efficiency index (BEI)” value (recombinant human PI3Kα) was 17.9. For the same compound, the IC50 (A549) was 12600 nM and the IC50 (HL60) was 4470 nM.

In the case of `CS(=O)(=O)N1CCN(c2nc3ccccc3nc2S(=O)(=O)c2ccccc2)CC1` [Compound 39, 2-(4-(Methylsulfonyl)piperazin-1-yl)-3-(phenylsulfonyl)quinoxaline], the IC50 (HCT116) is reported as 1210 nM, the IC50 (PC3) is reported as 1070 nM and the “Binding efficiency index (BEI)” value (recombinant human PI3Kα) is reported as 13.6. It also gave an IC50 (recombinant human PI3Kα; [1]) of 1340 nM, a melting point of 182 to 185 °C and an IC50 (A549) of 2370 nM.

With `O=S(=O)(c1ccccc1)c1nc2ccccc2nc1N1CCN(CCCN2CCOCC2)CC1` [Compound 49, 2-(4-(3-Morpholinopropyl)piperazin-1-yl)-3-(phenylsulfonyl)quinoxaline] the IC50 (HCT116) was 650 nM, the IC50 (PC3) was 5120 nM and the “Binding efficiency index (BEI)” value (recombinant human PI3Kα) was 14.0. It also gave an IC50 (recombinant human PI3Kα; [1]) of 180 nM and an IC50 (A549) of 730 nM.

In the case of `O=S(=O)(c1ccc(Br)cc1)c1nc2ccccc2nc1N1CCN(CCCN2CCOCC2)CC1` [Compound 52, 2-(4-(3-Morpholinopropyl)piperazin-1-yl)-3-(4-bromophenylsulfonyl)quinoxaline], the IC50 (HCT116) is reported as 220 nM, the IC50 (PC3) is reported as 1190 nM and the “Binding efficiency index (BEI)” value (recombinant human PI3Kα) is reported as 11.9. The IC50 (recombinant human PI3Kα; [1]) was 200 nM and the IC50 (A549) was 340 nM.

Work on `COc1ccc(S(=O)(=O)c2nc3ccccc3nc2N2CCN(C(=O)c3ccccc3)CC2)cc1` [Compound 31, 2-(4-Benzoylpiperazin-1-yl)-3-(4-methoxyphenylsulfonyl)quinoxaline] yielded an IC50 (HCT116) of 17200 nM, an IC50 (PC3) of 3630 nM and a melting point of 166 to 169 °C. It also gave an IC50 (A549) of 7430 nM, an IC50 (KB) of 5.65 µM and an IC50 (HL60) of 6930 nM.

Compound `COc1ccc(S(=O)(=O)c2nc3ccccc3nc2N2CCN(C(=O)c3ccc(Cl)cc3)CC2)cc1` [Compound 36, 2-(4-(4-Chlorobenzoyl)piperazin-1-yl)-3-(4-methoxyphenylsulfonyl)quinoxaline] has an IC50 (HCT116) of 9620 nM, an IC50 (PC3) of 2430 nM and a melting point of 179 °C. It also gave an IC50 (A549) greater than 50000 nM, an IC50 (KB) of 6.03 µM and an IC50 (HL60) of 5580 nM.

Work on `Cc1ccc(S(=O)(=O)c2nc3ccccc3nc2N2CCC(C(N)=O)CC2)cc1` [Compound 5, 2-(4-Carbamoylpiperidin-1-yl)-3-(4-methylphenylfsulfonyl)quinoxaline] yielded an IC50 (HCT116) of 1200 nM, an IC50 (PC3) of 2280 nM and a melting point of 200 to 203 °C. The IC50 (A549) was 27400 nM, the IC50 (KB) was 11.8 µM and the IC50 (HL60) was 140 nM.

In the case of `O=C(c1ccc(Cl)cc1)N1CCN(c2nc3ccccc3nc2S(=O)(=O)c2ccc(F)cc2)CC1` [Compound 38, 2-(4-(4-Chlorobenzoyl)piperazin-1-yl)-3-(4-fluorophenylsulfonyl)quinoxaline], the IC50 (HCT116) is reported as 8750 nM, the IC50 (PC3) is reported as 4050 nM and the melting point is reported as 214 to 215 °C. For the same compound, the IC50 (A549) was 17700 nM, the IC50 (KB) was 1.88 µM and the IC50 (HL60) was 4440 nM.

With `CC(=O)N1CCN(c2nc3ccccc3nc2S(=O)(=O)c2ccc(C)cc2)CC1` [Compound 10, 2-(4-Acetylpiperazin-1-yl)-3-(4-methylphenylsulfonyl)quinoxaline] the IC50 (HCT116) was 2600 nM, the IC50 (PC3) was 2270 nM and the melting point was 148 to 150 °C. For the same compound, the IC50 (A549) was 2420 nM, the IC50 (KB) was 3.89 µM and the IC50 (HL60) was 3280 nM.

`CN1CCN(c2nc3ccccc3nc2S(=O)(=O)c2ccc(F)cc2)CC1` [Compound 18, 2-(4-Methylpiperazin-1-yl)-3-(4-fluorophenylsulfonyl)quinoxaline] showed an IC50 (HCT116) of 8210 nM, an IC50 (PC3) of 3090 nM and a melting point of 147 to 148 °C. The IC50 (A549) was 7950 nM, the IC50 (KB) was 21.6 µM and the IC50 (HL60) was 2750 nM.

`Cc1ccc(S(=O)(=O)N2CCN(c3nc4ccccc4nc3S(=O)(=O)c3ccc(Br)cc3)CC2)cc1` [Compound 47, 2-(4-(4-Methylphenylsulfonyl)piperazin-1-yl)-3-(4-bromophenylsulfonyl)-quinoxaline] showed an IC50 (HCT116) of 5070 nM, an IC50 (PC3) of 4890 nM and a melting point of 214 to 216 °C. For the same compound, the IC50 (A549) was 19500 nM, the IC50 (KB) was 2.73 µM and the IC50 (HL60) was 10300 nM.

For `COc1ccc(S(=O)(=O)c2nc3ccccc3nc2N2CCNCC2)cc1` [Compound 21, 2-(Piperazin-1-yl)-3-(4-methoxyphenylsulfonyl)quinoxaline], the IC50 (HCT116) was 630 nM, the IC50 (PC3) was 680 nM and the melting point was 142 to 144 °C. For the same compound, the IC50 (A549) was 1370 nM, the IC50 (KB) was 11.5 µM and the IC50 (HL60) was 160 nM.

With `CC(=O)N1CCN(c2nc3ccccc3nc2S(=O)(=O)c2ccc(Br)cc2)CC1` [Compound 12, 2-(4-Acetylpiperazin-1-yl)-3-(4-bromophenylsulfonyl)quinoxaline] the IC50 (HCT116) was 530 nM, the IC50 (PC3) was 3030 nM and the melting point was 174 to 178 °C. The IC50 (A549) was 9790 nM, the IC50 (KB) was 4.3 µM and the IC50 (HL60) was 120 nM.

Work on `CC(=O)N1CCN(c2nc3ccccc3nc2S(=O)(=O)c2ccc(F)cc2)CC1` [Compound 13, 2-(4-Acetylpiperazin-1-yl)-3-(4-fluorophenylsulfonyl)quinoxaline] yielded an IC50 (HCT116) of 4340 nM, an IC50 (PC3) of 3170 nM and a melting point of 108 to 112 °C. It also gave an IC50 (A549) of 7120 nM, an IC50 (KB) of 6.15 µM and an IC50 (HL60) of 1780 nM.
